From ChEMBL document CHEMBL1201862, “PubChem BioAssay data set” (2004)
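1) Cells in 96-well plates. 2) Compound, 48 h, 5 concentrations. 3) Linear interpolation between surrounding doses. 4) Unreached endpoint = highest concentration. GI50 marks 50% less growth.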 Activity calls are given as the source filed them. Cut-off read from the data, not from the text of the source: active = GI50 up to about 1.1 µM and inactive = higher.

Columns and labels:
Test in all cases: DTP human tumour cell line panel, 48 h
A549 = test system: A549
UACC-62 = test system: UACC-62
NCI-H226 = test system: NCI-H226
OVCAR-3 = test system: OVCAR-3
HL-60 = test system: HL-60
786-0 = test system: 786-0
MOLT-4 = test system: MOLT-4
PC-3 = test system: PC-3
COLO 205 = test system: COLO 205
UACC-257 = test system: UACC-257
BT-549 = test system: BT-549
U-251 = test system: U-251
T47D = test system: T47D
UO-31 = test system: UO-31
OVCAR-4 = test system: OVCAR-4
Hs-578T = test system: Hs-578T
ACHN = test system: ACHN
SR = test system: SR
MDA-MB-231 = test system: MDA-MB-231
Malme-3M = test system: Malme-3M

Structure (SMILES)	GI50 (A549)	GI50 (UACC-62)	GI50 (NCI-H226)	GI50 (OVCAR-3)	GI50 (HL-60)	GI50 (786-0)	GI50 (MOLT-4)	GI50 (PC-3)	GI50 (COLO 205)	GI50 (UACC-257)	GI50 (BT-549)	GI50 (U-251)	GI50 (T47D)	GI50 (UO-31)	GI50 (OVCAR-4)	GI50 (Hs-578T)	GI50 (ACHN)	GI50 (SR)	GI50 (MDA-MB-231)	GI50 (Malme-3M)
COc1cc(NCC2COc3c(ccc(OC)c3OC)C2=O)c([N+](=O)[O-])cc1OC (stereo not drawn)	> 100 µM (inactive)	77.8 µM (inactive)	> 100 µM (inactive)	> 100 µM (inactive)	36.8 µM (inactive)	15.6 µM (inactive)	16.4 µM (inactive)	94 µM (inactive)	54.7 µM (inactive)	> 100 µM (inactive)	> 10 µM (inactive)	> 100 µM (inactive)	26.1 µM (inactive)	> 100 µM (inactive)	82.4 µM (inactive)	95.3 µM (inactive)	> 100 µM (inactive)	30.8 µM (inactive)	79.1 µM (inactive)	
OCC1OC(NC(=S)NCSCCC(F)(F)C(F)(F)C(F)(F)C(F)(F)C(F)(F)C(F)(F)F)C(O)C(O)C1O (stereo not drawn)	58.1 µM (inactive)	32.7 µM (inactive)		86.9 µM (inactive)	49.4 µM (inactive)	45.8 µM (inactive)	21.5 µM (inactive)	33.6 µM (inactive)	77.4 µM (inactive)	46.6 µM (inactive)	> 100 µM (inactive)	17.5 µM (inactive)	> 100 µM (inactive)	> 100 µM (inactive)	> 100 µM (inactive)	33.5 µM (inactive)	35.2 µM (inactive)	49.3 µM (inactive)	> 100 µM (inactive)	73.8 µM (inactive)
CCOC(=O)c1ccc(Nc2nc3ccccc3n3cccc23)cc1	86.5 µM (inactive)	40.8 µM (inactive)		70 µM (inactive)	< 0.01 µM (active)	26.8 µM (inactive)	> 100 µM (inactive)	36.6 µM (inactive)	> 100 µM (inactive)	> 100 µM (inactive)	> 100 µM (inactive)	28.4 µM (inactive)	9.57 µM (inactive)	> 100 µM (inactive)		42.9 µM (inactive)	72.8 µM (inactive)	8.97 µM (inactive)	36 µM (inactive)	> 100 µM (inactive)
O=C(C[n+]1ccc2ccccc2c1)c1ccc2ccc3ccccc3c2c1	3.23 µM (inactive)	2.99 µM (inactive)	7.94 µM (inactive)	4.15 µM (inactive)		1.67 µM (inactive)		2.84 µM (inactive)	1.07 µM (active)	2.04 µM (inactive)	11.2 µM (inactive)	2.21 µM (inactive)	4.74 µM (inactive)	4.69 µM (inactive)	3.84 µM (inactive)	8.32 µM (inactive)	2.22 µM (inactive)	0.406 µM (active)	1.28 µM (inactive)	7.71 µM (inactive)
CCC(C)(O)c1cnc(CC(C)C)c(=O)n1O (stereo not drawn)	43.9 µM (inactive)	68.2 µM (inactive)		33.8 µM (inactive)		57.7 µM (inactive)	21.4 µM (inactive)	48.3 µM (inactive)	54.7 µM (inactive)	97.3 µM (inactive)	> 100 µM (inactive)	47.9 µM (inactive)	59.4 µM (inactive)	40.1 µM (inactive)	74.3 µM (inactive)	80.7 µM (inactive)	59.7 µM (inactive)	17.2 µM (inactive)	43.3 µM (inactive)	
COC(=O)C(C)(C)NC(=O)C(Cc1ccccc1)Nc1ncnc2c1ncn2-c1ccc(OC)cc1 (stereo not drawn)	22.5 µM (inactive)	39.1 µM (inactive)	32.1 µM (inactive)	38.8 µM (inactive)		28.8 µM (inactive)	> 10 µM (inactive)	29.5 µM (inactive)	17.7 µM (inactive)	39.9 µM (inactive)	40.9 µM (inactive)	26.5 µM (inactive)	17.5 µM (inactive)	96.4 µM (inactive)	12.7 µM (inactive)	27.8 µM (inactive)	> 100 µM (inactive)	> 10 µM (inactive)	28.6 µM (inactive)	
Cc1cc(S(=O)(=O)[N-]C(=C(C#N)C#N)[n+]2ccc(N(C)C)cc2)c(SCC(=O)O)cc1Cl	> 100 µM (inactive)	> 100 µM (inactive)	> 100 µM (inactive)	> 100 µM (inactive)	> 100 µM (inactive)	> 100 µM (inactive)	> 100 µM (inactive)	> 100 µM (inactive)	> 100 µM (inactive)	> 100 µM (inactive)	> 100 µM (inactive)	> 100 µM (inactive)	> 100 µM (inactive)	> 100 µM (inactive)	> 100 µM (inactive)	> 100 µM (inactive)	> 100 µM (inactive)		> 100 µM (inactive)	22.6 µM (inactive)
